Experimental data reported in the NIST ThermoML archive (doi:10.1021/je101361u).
± gives the expanded uncertainty stated by the source.

Experiment: xn = mol fraction of the nth substance listed
Settings: 101.3 kPa, Liquid

COCCOC [1,2-dimethoxyethane] + ClCCCl
mass density [kg/m3]
Settings | 283.15 K | 288.15 K | 293.15 K | 298.15 K | 303.15 K | 308.15 K
x2 = 0.0251 | 885.37 ± 0.49 | 879.96 ± 0.49 | 874.49 ± 0.5 | 868.99 ± 0.51 | 863.45 ± 0.51 | 857.87 ± 0.52
x2 = 0.05 | 893.06 ± 0.48 | 887.61 ± 0.48 | 882.11 ± 0.49 | 876.59 ± 0.49 | 871.02 ± 0.5 | 865.42 ± 0.51
x2 = 0.0501 | 893.14 ± 0.48 | 887.69 ± 0.48 | 882.19 ± 0.49 | 876.66 ± 0.49 | 871.08 ± 0.5 | 865.47 ± 0.51
x2 = 0.075 | 900.9 ± 0.46 | 895.43 ± 0.47 | 889.9 ± 0.47 | 884.34 ± 0.48 | 878.74 ± 0.49 | 873.1 ± 0.49
x2 = 0.1 | 908.78 ± 0.45 | 903.28 ± 0.45 | 897.71 ± 0.46 | 892.12 ± 0.47 | 886.49 ± 0.47 | 880.82 ± 0.48
x2 = 0.1552 | 926.63 ± 0.42 | 921.05 ± 0.42 | 915.42 ± 0.43 | 909.76 ± 0.44 | 904.05 ± 0.44 | 898.32 ± 0.45
x2 = 0.2001 | 941.4 ± 0.39 | 935.76 ± 0.4 | 930.07 ± 0.41 | 924.35 ± 0.41 | 918.59 ± 0.42 | 912.79 ± 0.42
x2 = 0.2501 | 958.23 ± 0.37 | 952.53 ± 0.37 | 946.77 ± 0.38 | 940.98 ± 0.39 | 935.15 ± 0.39 | 929.28 ± 0.4
x2 = 0.3002 | 975.46 ± 0.34 | 969.68 ± 0.35 | 963.86 ± 0.35 | 957.99 ± 0.36 | 952.09 ± 0.37 | 946.16 ± 0.37
x2 = 0.35 | 992.96 ± 0.32 | 987.11 ± 0.32 | 981.21 ± 0.33 | 975.28 ± 0.34 | 969.3 ± 0.34 | 963.29 ± 0.35
x2 = 0.4001 | 1010.98 ± 0.32 | 1005.05 ± 0.31 | 999.08 ± 0.31 | 993.07 ± 0.31 | 987.02 ± 0.32 | 980.93 ± 0.32
x2 = 0.45 | 1029.37 ± 0.34 | 1023.36 ± 0.33 | 1017.3 ± 0.32 | 1011.21 ± 0.32 | 1005.09 ± 0.31 | 998.92 ± 0.3
x2 = 0.5 | 1048.22 ± 0.36 | 1042.13 ± 0.35 | 1035.99 ± 0.34 | 1029.82 ± 0.33 | 1023.61 ± 0.33 | –
x2 = 0.5001 | 1048.32 ± 0.36 | 1042.23 ± 0.35 | 1036.09 ± 0.34 | 1029.91 ± 0.33 | 1023.7 ± 0.33 | –
x2 = 0.55 | 1067.59 ± 0.38 | 1061.41 ± 0.37 | 1055.19 ± 0.36 | 1048.93 ± 0.36 | 1042.63 ± 0.35 | –
x2 = 0.6001 | 1087.41 ± 0.4 | 1081.15 ± 0.39 | 1074.83 ± 0.39 | 1068.48 ± 0.38 | 1062.09 ± 0.37 | –
x2 = 0.65 | 1107.73 ± 0.43 | 1101.37 ± 0.42 | 1094.96 ± 0.41 | 1088.51 ± 0.4 | 1082.03 ± 0.39 | –
x2 = 0.7 | 1128.6 ± 0.45 | 1122.14 ± 0.44 | 1115.63 ± 0.43 | 1109.08 ± 0.42 | 1102.5 ± 0.41 | –
x2 = 0.75 | 1150.14 ± 0.48 | 1143.57 ± 0.47 | 1136.95 ± 0.46 | 1130.3 ± 0.45 | 1123.6 ± 0.44 | –
x2 = 0.8 | 1172.13 ± 0.51 | 1165.45 ± 0.5 | 1158.71 ± 0.49 | 1151.94 ± 0.48 | 1145.15 ± 0.47 | –
x2 = 0.85 | 1195.03 ± 0.54 | 1188.23 ± 0.53 | 1181.37 ± 0.52 | 1174.49 ± 0.51 | 1167.57 ± 0.5 | –
x2 = 0.9 | 1218.48 ± 0.57 | 1211.55 ± 0.55 | 1204.56 ± 0.54 | 1197.56 ± 0.53 | 1190.51 ± 0.52 | –
x2 = 0.925 | 1230.36 ± 0.58 | 1223.37 ± 0.57 | 1216.32 ± 0.56 | 1209.25 ± 0.55 | 1202.14 ± 0.54 | –
x2 = 0.975 | 1254.94 ± 0.61 | 1247.8 ± 0.6 | 1240.62 ± 0.59 | 1233.42 ± 0.58 | 1226.18 ± 0.57 | –
